Like-named read-outs stand apart in the source and are kept apart here.
Assays:
[1] = target: T1, full-length beta-Catenin (Uniprot ID P35222) (Homo sapiens, UniProt P35222); assay: Fluorescence polarization IC50 (beta-catenin / 5FAM-TCF4 10-53 competition); type: binding; details: read-out: beta-Catenin FP IC50
T1 construct: 10 nM full-length beta-Catenin (Uniprot ID P35222)
T1 sequence (P35222 1-781): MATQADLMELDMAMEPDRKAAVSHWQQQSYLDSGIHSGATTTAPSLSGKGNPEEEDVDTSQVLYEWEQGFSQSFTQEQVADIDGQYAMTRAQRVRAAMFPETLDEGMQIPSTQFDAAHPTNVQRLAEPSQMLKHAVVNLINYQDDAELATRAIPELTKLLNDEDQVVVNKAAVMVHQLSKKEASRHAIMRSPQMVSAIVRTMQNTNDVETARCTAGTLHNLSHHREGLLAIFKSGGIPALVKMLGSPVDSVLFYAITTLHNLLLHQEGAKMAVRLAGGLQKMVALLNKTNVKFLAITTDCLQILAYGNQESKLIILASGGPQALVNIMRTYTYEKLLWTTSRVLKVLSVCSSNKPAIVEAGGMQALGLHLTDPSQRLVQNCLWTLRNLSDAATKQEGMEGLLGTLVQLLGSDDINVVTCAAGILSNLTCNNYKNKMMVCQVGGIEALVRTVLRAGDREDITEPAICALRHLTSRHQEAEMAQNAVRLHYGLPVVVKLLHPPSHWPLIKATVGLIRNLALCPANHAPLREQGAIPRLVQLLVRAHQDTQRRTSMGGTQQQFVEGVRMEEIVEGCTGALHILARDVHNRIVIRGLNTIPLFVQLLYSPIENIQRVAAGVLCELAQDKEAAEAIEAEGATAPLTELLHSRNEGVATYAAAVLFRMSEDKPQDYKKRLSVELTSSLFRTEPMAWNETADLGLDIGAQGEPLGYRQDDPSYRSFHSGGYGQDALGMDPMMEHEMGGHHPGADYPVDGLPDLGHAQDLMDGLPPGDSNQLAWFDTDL

[2] = target: T2, beta-catenin/TCF4 engagement (Homo sapiens, UniProt P35222); assay: Nano-BRET target engagement assay (B-cat-Halo & TCF4-Luc in HEK293 cells); type: cell-based; details: absolute IC50; read-out: NanoBRET Abs IC50
T2 construct: expressed in transfected cells; host or cells: HEK293
T2 sequence (P35222 1-781): T1 sequence (P35222 1-781)

[3] = test system: TCF/LEF luciferase Reporter in DLD1 cells; assay: TCF reporter assay (DLD1 TCF/LEF luciferase reporter, Bright-Glo); type: cell-based; details: absolute IC50
Source text: Those skilled in the art will appreciate that other suitable reagents may be utilized and various parameters may be adjusted.
DLD1 reporter cell line was generated by using TCF/LEF luciferase Reporter Lentivirus (BPS Bioscience Catalog #79787). Parental DLD1 cells (ATCC@ CCL-221) were transfected with the lentivirus and followed by 3-day puromycin selection. Single clone was selected for Reporter assay.
On Day 1, cultured cells in flasks that are no more than about 60-70% confluent were washed with PBS and typsinized in 3 mL/T75 until cells were free floating. Spin down cells for 5 minutes at 1100RPM. While cells spin, determine the number of plates (3 compounds per plate) needed. After spinning, aspirate the supernatant gently and add 10 mL media (RPMI+4% FBS), and re-suspend and mix the cells gently. Count the cells twice in the cell counter Countess and take average of both the counts, and determine how many cells are needed. After plating cells at 5000 cells/well, seal with aerseal film. 90 uL cells/well. Incubate at 37° C. overnight, tap gently to mix and don't stack plates.
On Day 2, compounds were added. Stock solution was 10 mM. Make the DMSO containing media by adding 36 uL DMSO to 10 mL of media. Make the dilution wells by transferring 100 uL DMSO+Media into rows B-F of a protein LoBind 96-well plate. Row G is empty. Add any extra DMSO+media to row H. Transfer 4 uL of stock solution to Row A. One compound per column. Add 196 uL media to Row A, no DMSO in the media. Concentration of Row A was 200 uM. Mix well and do a 6 pt, 1:2 serial dilution, mix ×10 per transfer and change tips before each transfer. Removed excess volume from final well (row F) and discard. Transfer 10 uL of the compound containing media to cells with a multichannel according to plate maps. Add 60 uL DMSO containing media to the DMSO wells. The edge wells were typically not used in the assay and could be ignored if needed or replaced with PBS, but there typically were liquids in the wells. Cover plates with breathable plate sealer and incubate overnight.
A 96-well plate may be utilized to prepare dilution series for up to 12 compounds, each with several concentrations (e.g., 200, 100, 50, 25, 12.5, 6.25 and 0 uM; can be utilized as 100× depending on final test concentrations).
0 uM is the DMSO control for the whole plate. Edge well filled with 90 uL cells+10 uL DMSO containing media.
On Day 3, luciferase levels were assessed using Bright-Glo (Promega). Equilibrate Bright-Glo to room temperature before addition. 7 mL of mixed Bright-Gbo per plate. Unused Bright-Glo could be store at −80° C. Reconstituted reagent can be stored for up to 1 month at −80° C., or after one freeze-thaw. When ready to read, remove plates from incubator and let sit at room temperature for 15 minutes. Typically stagger taking out plates if reading multiple plates before adding the Bright-Glo. Add 90 uL/well Bright-Glo and shake gently for 3 minutes. Read luminescence on GloMax immediately using ‘BrightGlo’ programs.
Cellular activity was assessed using CTG. Equilibrate CTG reagents to room temperature. Equilibrate plates to room temp, e.g. 15 min. Use same time length for all plates. Add CTG reagent, 25 uL if using undiluted, or 90 uL if diluted 1 to 4. Shake for 2 min to induce cell lysis. Allow plate to incubate at RT for 10 min to stabilize lumine sent signal. Read luminesence using program ‘CellTiter-Glo’. Use Prism to find the Absolute IC50 (AbsIC50=X[50]) of each compound.

[4] = read-out: DLD1 reporter assay Abs IC50
[5] = read-out: DLD1 4% Abs IC50, DLD1 reporter, 4%

Compound | IC50 ([1]; fluorescence polarization) | IC50 [2] | IC50 [1] | IC50 [3, 4] | IC50 [3, 5] | IC50 ([3]; read-out: DLD1 4% Abs IC50, DLD1 reporter assay, 4%)
CC(=O)N1CCC[C@]12CC=CCCCC1(CCCC=CCCCOC(=O)N3CC[C@@](C(=O)N[C@@H](Cc4ccsc4)C(=O)N[C@@H](Cc4csc5ccccc45)C(=O)N[C@H](CO)[C@@H](C)O)(C3)NC(=O)[C@H](CC(C)C)NC(=O)[C@H](Cc3ccccc3)NC(=O)[C@H](C)NC(=O)[C@H](C)NC(=O)[C@H](Cc3ccccc3C(=O)O)NC(=O)[C@H](CC(=O)O)NC1=O)NC(=O)[C@H](CC(C)(C)C)NC(=O)[C@H](CC(=O)O)NC2=O (single isomer, unassigned) [I-1671, Ac-PL3-Asp-Npg-B5-Asp-2COOHF-Ala-Ala-Phe-Leu-PyrS2-3Thi-BztA-Thro1] | 28 nM | 8 µM | – | – | – | 1.7 µM
CC(=O)N1CCC[C@]12CC=CCCCC1(CCCC=CCCCOC(=O)N3CC[C@@](C(=O)N[C@@H](Cc4ccsc4)C(=O)N[C@@H](Cc4csc5ccccc45)C(=O)N[C@@H](CCC(N)=O)C(=O)O)(C3)NC(=O)[C@H](CC(N)=O)NC(=O)[C@H](Cc3ccccc3)NC(=O)[C@H](C)NC(=O)[C@H](C)NC(=O)[C@H](CC(=O)O)NC(=O)[C@H](CC(=O)O)NC1=O)NC(=O)[C@H](CC(C)(C)C)NC(=O)[C@H](CC(=O)O)NC2=O (stereo partly drawn) [I-1025, Ac-PL3-Asp-Npg-B5-Asp-Asp-Ala-Ala-Phe-Asn-PyrS2-3Thi-BztA-Gln-OH] | – | 23.6 µM | 5 nM | > 20 µM | – | –
CC(=O)N1CCC[C@]12CC=CCCCC1(CCCC=CCCCOC(=O)N3CC[C@@](C(=O)N[C@@H](Cc4ccsc4)C(=O)N[C@@H](Cc4csc5ccccc45)C(=O)N[C@@H](CCC(N)=O)C(=O)O)(C3)NC(=O)[C@H](CC(N)=O)NC(=O)[C@H](Cc3ccccc3)NC(=O)[C@H](C)NC(=O)[C@H](C)NC(=O)[C@H](CN(CC(=O)O)CC(F)(F)F)NC(=O)[C@H](CC(=O)O)NC1=O)NC(=O)[C@H](CC(C)(C)C)NC(=O)[C@H](CC(=O)O)NC2=O (stereo partly drawn) [I-1026, Ac-PL3-Asp-Npg-B5-Asp-TfeGA-Ala-Ala-Phe-Asn-PyrS2-3Thi-BztA-Gln-OH] | – | 16.7 µM | 5 nM | > 20 µM | – | –
CCNC(=O)[C@H](CCC(N)=O)NC(=O)[C@H](Cc1csc2ccccc12)NC(=O)[C@H](Cc1ccccc1Cl)NC(=O)[C@]12CCN(C1)C(=O)OCCCC=CCCCC1(CCCC=CC[C@]3(CCCN3C(C)=O)C(=O)N[C@@H](CC(=O)O)C(=O)N[C@@H](CC(C)(C)C)C(=O)N1)C(=O)N[C@@H](CC(=O)O)C(=O)N[C@@H](CN(CC(=O)O)CC(F)(F)F)C(=O)N[C@@H](C)C(=O)N[C@@H](C)C(=O)N[C@@H](Cc1ccccc1)C(=O)N[C@@H]([C@@H](C)O)C(=O)N2 (stereo partly drawn) [I-1240, Ac-PL3-Asp-Npg-B5-Asp-TfeGA-Ala-Ala-Phe-Thr-PyrS2-2C1F-BztA-Gln-NHEt] | 33 nM | 11.5 µM | – | 4.9 µM | – | –
CC(=O)N1CCC[C@]12CC=CCCCC1(CCCC=CCCCOC(=O)N3CC[C@@](C(=O)N[C@@H](Cc4ccccc4Cl)C(=O)N[C@@H](Cc4csc5ccccc45)C(=O)N[C@H](CO)[C@@H](C)O)(C3)NC(=O)[C@H]([C@@H](C)O)NC(=O)[C@H](Cc3ccccc3)NC(=O)[C@H](C)NC(=O)[C@H](C)NC(=O)[C@H](CN(CC(=O)O)CC(F)(F)F)NC(=O)[C@H](CC(=O)O)NC1=O)NC(=O)[C@H](CC(C)(C)C)NC(=O)[C@H](CC(=O)O)NC2=O (stereo partly drawn) [I-1241, Ac-PL3-Asp-Npg-B5-Asp-TfeGA-Ala-Ala-Phe-Thr-PyrS2-2C1F-BztA-Thro1] | 19 nM | 15.7 µM | – | 3.8 µM | – | –

Now from value to molecule, other results behind:

IC50 ([1]; fluorescence polarization) | IC50 [2] | IC50 [1] | IC50 [3, 4] | IC50 [3, 5] | Compound | IC50 ([3]; read-out: DLD1 4% Abs IC50, DLD1 reporter assay, 4%)
30 nM | > 20 µM | – | 4.8 µM | 3.8 µM | CC(=O)N1CCC[C@]12CC=CCCCC1(CCCC=CCCCOC(=O)N3CC[C@@](C(=O)N[C@@H](Cc4ccccc4Cl)C(=O)N[C@@H](Cc4csc5ccccc45)C(=O)N[C@@H](C)CO)(C3)NC(=O)[C@H]([C@@H](C)O)NC(=O)[C@H](Cc3ccccc3)NC(=O)[C@H](C)NC(=O)[C@H](C)NC(=O)[C@H](CN(CC(=O)O)CC(F)(F)F)NC(=O)[C@H](CC(=O)O)NC1=O)NC(=O)[C@H](CC(C)(C)C)NC(=O)[C@H](CC(=O)O)NC2=O (stereo partly drawn) [I-1242, Ac-PL3-Asp-Npg-B5-Asp-TfeGA-Ala-Ala-Phe-Thr-PyrS2-2C1F-BztA-Alao1] | –
18 nM | 17.7 µM | – | 13.9 µM | 15.9 µM | CCNC(=O)[C@H](CO)NC(=O)[C@H](Cc1csc2ccccc12)NC(=O)[C@H](Cc1ccccc1Cl)NC(=O)[C@]12CCN(C1)C(=O)OCCCC=CCCCC1(CCCC=CC[C@]3(CCCN3C(C)=O)C(=O)N[C@@H](CC(=O)O)C(=O)N[C@@H](CC(C)(C)C)C(=O)N1)C(=O)N[C@@H](CC(=O)O)C(=O)N[C@@H](CC(=O)O)C(=O)N[C@@H](C)C(=O)N[C@@H](C)C(=O)N[C@@H](Cc1ccccc1)C(=O)N[C@@H]([C@@H](C)O)C(=O)N2 (stereo partly drawn) [I-1244, Ac-PL3-Asp-Npg-B5-Asp-Asp-Ala-Ala-Phe-Thr-PyrS2-2C1F-BztA-Ser-NHEt] | –
9 nM | 12.2 µM | – | 7.3 µM | 4.1 µM | CC(=O)N1CCC[C@]12CC=CCCCC1(CCCC=CCCCOC(=O)N3CC[C@@](C(=O)N[C@@H](Cc4ccccc4Cl)C(=O)N[C@@H](Cc4csc5ccccc45)C(=O)N[C@H](CO)[C@@H](C)O)(C3)NC(=O)[C@H]([C@@H](C)O)NC(=O)[C@H](Cc3ccccc3)NC(=O)[C@H](C)NC(=O)[C@H](C)NC(=O)[C@H](CC(=O)O)NC(=O)[C@H](CC(=O)O)NC1=O)NC(=O)[C@H](CC(C)(C)C)NC(=O)[C@H](CC(=O)O)NC2=O (stereo partly drawn) [I-1245, Ac-PL3-Asp-Npg-B5-Asp-Asp-Ala-Ala-Phe-Thr-PyrS2-2C1F-BztA-Thro1] | –
13 nM | 24.3 µM | – | 15.9 µM | 16.2 µM | CC(=O)N1CCC[C@]12CC=CCCCC1(CCCC=CCCCOC(=O)N3CC[C@@](C(=O)N[C@@H](Cc4ccccc4Cl)C(=O)N[C@@H](Cc4csc5ccccc45)C(=O)N[C@@H](C)CO)(C3)NC(=O)[C@H]([C@@H](C)O)NC(=O)[C@H](Cc3ccccc3)NC(=O)[C@H](C)NC(=O)[C@H](C)NC(=O)[C@H](CC(=O)O)NC(=O)[C@H](CC(=O)O)NC1=O)NC(=O)[C@H](CC(C)(C)C)NC(=O)[C@H](CC(=O)O)NC2=O (stereo partly drawn) [I-1246, Ac-PL3-Asp-Npg-B5-Asp-Asp-Ala-Ala-Phe-Thr-PyrS2-2C1F-BztA-Alao1] | –
